Measurements from ChEMBL document CHEMBL3244130, “A manual method for applying the Hansch approach to drug design” (J Med Chem, 1977).

System: Rattus norvegicus
Experiment: Antiinflammatory activity in rat pleurisy model assessed as 10X ratio of mean pleural exudate volumes at 1 mmol/kg, po relative to 1 mmol/kg aspirin
Assay type: functional
Details: not given

Compound	Activity_index
O=C(O)CCn1nnc(-c2cccc(Cl)c2)n1	11.2
O=C(O)CCn1nnc(-c2ccc(Cl)cc2)n1	5.9
O=C(O)CCn1nnc(-c2cccc(C(F)(F)F)c2)n1	5.7
Cc1cccc(-c2nnn(CCC(=O)O)n2)c1	7.9
Nc1cccc(-c2nnn(CCC(=O)O)n2)c1	0.3
O=C(O)CCn1nnc(-c2cc(Cl)cc(Cl)c2)n1	11.2
COc1ccc(-c2nnn(CCC(=O)O)n2)cc1	4.9
O=C(O)CCn1nnc(-c2cccc(Br)c2)n1	11.2
Cc1ccc(-c2nnn(CCC(=O)O)n2)cc1	3.1
O=C(O)CCn1nnc(-c2ccc(Cl)c(Cl)c2)n1	6.2
O=C(O)CCn1nnc(-c2ccccc2)n1	8.2

System: not listed separately
Experiment: Inhibition of carbonic anhydrase (unknown origin)
Details: Homo sapiens

log1/Ki	Compound
0.72	NS(=O)(=O)c1ccc(Cl)cc1
0.42	Cc1ccc(S(N)(=O)=O)cc1
0.35	COc1ccc(S(N)(=O)=O)cc1
1.4	NS(=O)(=O)c1ccc(Cl)c(Cl)c1
0.22	NS(=O)(=O)c1ccccc1
1.85	NS(=O)(=O)c1ccc([N+](=O)[O-])c(C(F)(F)F)c1

System: Escherichia coli
Experiment: Antibacterial activity against Escherichia coli
Assay type: functional
Details: not given

log(1/MIC)	Compound
4.05	N#Cc1ccc(C(=O)NS(=O)(=O)c2ccc(N)cc2)cc1
5.4	Cc1cccc(C(=O)NS(=O)(=O)c2ccc(N)cc2)c1
5.25	Nc1ccc(S(=O)(=O)NC(=O)c2ccccc2)cc1 [SULFABENZAMIDE]
5.4	CC(C)c1ccc(C(=O)NS(=O)(=O)c2ccc(N)cc2)cc1
5.4	Cc1ccc(C(=O)NS(=O)(=O)c2ccc(N)cc2)cc1
5.1	Nc1ccc(S(=O)(=O)NC(=O)c2ccc(Cl)cc2)cc1
5.18	CCCc1ccc(C(=O)NS(=O)(=O)c2ccc(N)cc2)cc1
5.4	COc1ccc(C(=O)NS(=O)(=O)c2ccc(N)cc2)cc1
5.25	COc1ccc(C(=O)NS(=O)(=O)c2ccc(N)cc2)cc1C
5.62	CCc1ccc(C(=O)NS(=O)(=O)c2ccc(N)cc2)cc1
4.5	Nc1ccc(S(=O)(=O)NC(=O)c2ccc([N+](=O)[O-])cc2)cc1
4.65	Nc1ccc(S(=O)(=O)NC(=O)c2cccc(C(F)(F)F)c2)cc1

Species: Oryctolagus cuniculus
Experiment: Reversible inhibition of guanine deaminase in rabbit liver at pH 7.4
Details: not given

log(1/C)	Compound
7.25	Nc1nc(O)c2ncn(-c3ccc(OCCCc4ccccc4)cc3)c2n1
7.01	CCOc1ccc(-n2cnc3c(O)nc(N)nc32)cc1

Species: Rattus norvegicus
Experiment: Hypoglycemic activity in rat assessed as change in blood glucose level after 4 hrs
Assay type: functional
Design: concentration or dose not given beside the values
Details: not given

Compound	Activity [%]
O=C(C=P(c1ccccc1)(c1ccccc1)c1ccccc1)c1ccccc1	-24
Cc1cccc(C(=O)C=P(c2ccccc2)(c2ccccc2)c2ccccc2)c1	-30
COc1cccc(C(=O)C=P(c2ccccc2)(c2ccccc2)c2ccccc2)c1	-42
O=C(C=P(c1ccccc1)(c1ccccc1)c1ccccc1)c1cccc(Cl)c1	-42
Cc1ccc(C(=O)C=P(c2ccccc2)(c2ccccc2)c2ccccc2)cc1	-2
O=C(C=P(c1ccccc1)(c1ccccc1)c1ccccc1)c1ccc(Cl)cc1	-21
O=C(C=P(c1ccccc1)(c1ccccc1)c1ccccc1)c1cccc(C(F)(F)F)c1	-22
O=C(C=P(c1ccccc1)(c1ccccc1)c1ccccc1)c1ccc(Cl)c(Cl)c1	2
COc1ccc(C(=O)C=P(c2ccccc2)(c2ccccc2)c2ccccc2)cc1	-4

System: not listed separately
Experiment: Inhibition of alcohol dehydrogenase (unknown origin) assessed as dissociation constant for the complex of enzyme and DPNH
Assay type: protein assay
Details: Homo sapiens

log K	Compound
-1.7	CC(C)c1ccc(C(N)=O)cc1
-1.93	NC(=O)c1ccc(Cl)cc1
-2.2	COc1ccc(C(N)=O)cc1
-1.78	Cc1ccc(C(N)=O)cc1
-2.72	NC(=O)c1ccccc1

System: not listed separately
Experiment: Uncoupling activity of oxidative phosphorylation in rat liver mitochondria
Assay type: functional
Details: not given

Compound	log(1/C50)
CC(C)c1ccc(C2C(=O)c3ccccc3C2=O)cc1	4.87
O=C1c2ccccc2C(=O)C1c1ccccc1	3.74
O=C1c2ccccc2C(=O)C1c1ccc(Cl)cc1	4.2
Cc1ccc(C2C(=O)c3ccccc3C2=O)cc1	4.1
CC(C)(C)c1ccc(C2C(=O)c3ccccc3C2=O)cc1	5.03
COc1ccc(C2C(=O)c3ccccc3C2=O)cc1	3.75

System: Plasma
Experiment: Fibrinolytic activity in human plasma assessed as dissolution of standard clot measured with in 24 hrs
Assay type: functional
Details: not given

Compound	log(1/C)
O=C(O)[C@H]1C[C@@H]1C#Cc1ccc(Cl)cc1	1.92
COc1ccc(C#C[C@H]2C[C@@H]2C(=O)O)cc1	1.7
O=C(O)[C@H]1C[C@@H]1C#Cc1ccccc1	1.7
Cc1ccc(C#C[C@H]2C[C@@H]2C(=O)O)cc1	1.82
